According to ChEMBL document CHEMBL1130699, “Coprophilin: an anticoccidial agent produced by a dung inhabiting fungus” (1998):
Converted amounts (≈) assume the structure as drawn. The source made the active and inactive calls. The rule behind the calls is not given here.

Legend:
MDBK441 [1] = experiment: Compound was tested for inhibition of the growth of Eimeria tenella in MDBK 441 cell line up to concentration 25 uM; no inhibition; format: functional, cell-based; details: Bos taurus
MDBK441 [2] = experiment: Compound was tested for inhibition of the growth of Eimeria tenella in MDBK 441 cell line; format: functional; details: Bos taurus

SMILES | MIC (MDBK441 [1]) | MIC (MDBK441 [2]) [µM]
COC(=O)CCCC[C@@H]1[C@H]2[C@H](C)[C@@H](O)C(C)C[C@]2(C)CC[C@@H]1C (stereo partly drawn) | inactive | –
CC1C[C@]2(C)C=C[C@H](C)[C@H](/C=C/C=C/C(=O)O)[C@H]2[C@H](C)[C@H]1O (stereo partly drawn) | inactive | –
COC(=O)/C=C/C=C/[C@@H]1[C@H]2[C@H](C)[C@@H](O)C(C)C[C@]2(C)C=C[C@@H]1C (stereo partly drawn) | – | 1.5 (≈ 0.478 µg/mL)
